The target of one assay is mutant G2019S LRRK2 (Homo sapiens (Human), UniProt Q5S007, G2019S). In words: LRRK2 kinase assay (LanthaScreen), G2019S mutant. It counts as biochemical. Particulars: G2019S mutant LRRK2, read-out: LRRK2, G2019S IC50. How it is done: (§1) LRRK2 kinase activity was measured using Lantha Screen technology from Invitrogen. GST-tagged truncated LRRK2 from Invitrogen (Cat #PV4874) was incubated with a fluorescein-labeled peptide substrate based upon ezrin/radixin/moesin (ERM), also known as LRRKtide (Invitrogen cat #PR8976A), in the presence of a dose response of compound. Upon completion, the assay was stopped and detected with a terbium labeled anti-phospho-ERM antibody (Invitrogen, cat #PR8975A). […] Using Echo acoustic dispensing, 60 nL of compound was transferred to a low volume Corning 384-well assay plate. 3 μL of a working solution of substrate (200 nM LRRKtide, 2 mM ATP) prepared in assay buffer (50 mM HEPES, pH 7.5, 3 mM MgCl2, with 2 mM DTT and 0.01% Brij35 added fresh) was added to the 60 nL compound assay plate. The kinase reaction was started with 3 μL of a working solution of LRRK2 enzyme at a concentration of 4 μg/m L. The final reaction concentrations were 100 nM LRRKtide, 1 mM ATP, 2 μg/mL LRRK2 enzyme and a compound dose response with a top dose of 3 μM. The reaction was allowed to progress at room temperature for 30 minutes and then stopped with the addition of 6 μL of detection buffer (20 mM Tris pH 7.6, 0.01% NP-40, 6 mM EDTA with 2 nM terbium labeled antiphospho-ERM). […] All final concentrations of substrate ATP and enzyme were the same.
Chain of mutant G2019S LRRK2 (Q5S007 whole entry G2019S, the tested form may be a part): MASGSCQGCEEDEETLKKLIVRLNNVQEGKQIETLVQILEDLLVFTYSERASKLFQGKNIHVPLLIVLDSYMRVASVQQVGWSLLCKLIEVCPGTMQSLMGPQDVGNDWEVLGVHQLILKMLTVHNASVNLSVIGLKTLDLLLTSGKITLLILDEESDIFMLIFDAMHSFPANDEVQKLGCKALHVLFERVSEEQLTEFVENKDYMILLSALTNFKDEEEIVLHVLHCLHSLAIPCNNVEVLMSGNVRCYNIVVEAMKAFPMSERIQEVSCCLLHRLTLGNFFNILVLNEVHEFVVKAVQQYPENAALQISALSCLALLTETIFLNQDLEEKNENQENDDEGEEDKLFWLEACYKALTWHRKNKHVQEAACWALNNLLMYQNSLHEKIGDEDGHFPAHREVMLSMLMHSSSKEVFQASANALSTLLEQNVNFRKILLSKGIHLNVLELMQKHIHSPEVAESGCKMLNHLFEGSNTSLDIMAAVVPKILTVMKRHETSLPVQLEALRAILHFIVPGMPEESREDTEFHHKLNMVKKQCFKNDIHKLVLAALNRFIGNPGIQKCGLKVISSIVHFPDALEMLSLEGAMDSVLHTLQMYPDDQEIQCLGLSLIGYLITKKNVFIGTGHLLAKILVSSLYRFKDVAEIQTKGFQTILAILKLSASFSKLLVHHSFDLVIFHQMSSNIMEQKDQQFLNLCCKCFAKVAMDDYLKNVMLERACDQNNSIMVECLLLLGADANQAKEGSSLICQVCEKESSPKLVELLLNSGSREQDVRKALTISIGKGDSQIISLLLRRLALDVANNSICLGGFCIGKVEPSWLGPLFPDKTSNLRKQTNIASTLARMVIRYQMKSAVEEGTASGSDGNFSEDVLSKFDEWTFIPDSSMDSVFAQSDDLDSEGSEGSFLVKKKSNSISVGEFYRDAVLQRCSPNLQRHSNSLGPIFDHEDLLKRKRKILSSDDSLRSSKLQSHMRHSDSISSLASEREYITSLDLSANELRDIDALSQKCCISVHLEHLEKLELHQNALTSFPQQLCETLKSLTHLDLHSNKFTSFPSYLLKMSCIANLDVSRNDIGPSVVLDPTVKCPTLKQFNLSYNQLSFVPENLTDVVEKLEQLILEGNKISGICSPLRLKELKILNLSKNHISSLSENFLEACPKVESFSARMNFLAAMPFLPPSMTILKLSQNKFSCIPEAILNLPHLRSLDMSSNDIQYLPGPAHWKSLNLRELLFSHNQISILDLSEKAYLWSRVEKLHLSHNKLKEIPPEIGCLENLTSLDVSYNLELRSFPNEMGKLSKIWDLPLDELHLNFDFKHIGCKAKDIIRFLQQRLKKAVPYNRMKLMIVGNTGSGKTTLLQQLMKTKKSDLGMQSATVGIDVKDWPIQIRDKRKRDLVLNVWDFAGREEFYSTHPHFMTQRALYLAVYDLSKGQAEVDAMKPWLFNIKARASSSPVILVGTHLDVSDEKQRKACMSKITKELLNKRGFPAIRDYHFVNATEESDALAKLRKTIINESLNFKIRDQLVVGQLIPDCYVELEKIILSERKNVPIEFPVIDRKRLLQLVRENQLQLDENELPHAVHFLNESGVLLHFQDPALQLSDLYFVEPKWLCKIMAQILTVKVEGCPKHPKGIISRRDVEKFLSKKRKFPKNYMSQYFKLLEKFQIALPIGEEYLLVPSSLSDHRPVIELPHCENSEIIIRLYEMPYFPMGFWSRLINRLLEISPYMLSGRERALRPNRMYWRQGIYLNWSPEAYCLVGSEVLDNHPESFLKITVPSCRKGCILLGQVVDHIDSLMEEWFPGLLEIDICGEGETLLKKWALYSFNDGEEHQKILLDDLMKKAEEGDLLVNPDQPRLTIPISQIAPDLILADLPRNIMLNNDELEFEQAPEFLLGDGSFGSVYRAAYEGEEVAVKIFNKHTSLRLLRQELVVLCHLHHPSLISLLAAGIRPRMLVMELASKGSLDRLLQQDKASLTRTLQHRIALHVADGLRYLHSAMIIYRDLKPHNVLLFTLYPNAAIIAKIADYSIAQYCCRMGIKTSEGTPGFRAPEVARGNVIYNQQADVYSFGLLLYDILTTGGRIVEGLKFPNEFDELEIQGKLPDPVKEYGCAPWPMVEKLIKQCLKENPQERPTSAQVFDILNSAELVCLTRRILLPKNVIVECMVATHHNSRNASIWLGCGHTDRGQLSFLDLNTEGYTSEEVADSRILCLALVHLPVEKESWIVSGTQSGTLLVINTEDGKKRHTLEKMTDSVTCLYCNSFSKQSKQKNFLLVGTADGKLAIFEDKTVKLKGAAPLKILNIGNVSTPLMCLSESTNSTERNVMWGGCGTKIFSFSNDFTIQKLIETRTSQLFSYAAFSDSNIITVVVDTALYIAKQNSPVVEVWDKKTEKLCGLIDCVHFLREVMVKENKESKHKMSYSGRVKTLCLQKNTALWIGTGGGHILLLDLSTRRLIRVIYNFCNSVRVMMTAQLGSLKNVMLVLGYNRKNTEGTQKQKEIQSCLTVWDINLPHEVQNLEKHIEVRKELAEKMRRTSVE
Background: Time-resolved FRET reads energy transfer from a long-lived donor to a nearby acceptor.

Assay [1] has as its target LRRK2, WT (GST-tagged truncated LRRK2) (Homo sapiens, UniProt Q5S007). In words: LRRK2 kinase assay (LanthaScreen), wild type. The format is biochemical. How it is done: as §1
[2] abbreviates: LanthaScreen, LRRKtide substrate.
[3] abbreviates: wild type LRRK2, LanthaScreen, LRRKtide substrate.
Setting [4] is: LanthaScreen, LRRKtide substrate, 1 mM ATP.

Molecules are shown by their SMILES. Where two headings read alike, the source gives them in different places.

Consider `Cc1cc(Cc2nc3cnc4ccc(C#N)cc4c3n2[C@@H]2CC[C@H](F)C2)no1` (racemic) [Example 68, 1-[cis-3-fluorocyclopentyl]-2-[(5-methyl-1,2-oxazol-3-yl)methyl]-1H-imidazo[4,5-c]quinoline-8-carbonitrile], for which the IC50 (usually the concentration needed to halve the response being measured) at mutant G2019S LRRK2 (data obtained using the formate salt of the Example) is 12.3 nM; in assay [1] (wild type LRRK2, data obtained using the formate salt of the Example), 8.32 nM.

Take `N#Cc1ccc2ncc3nc(Cc4nc5ccccc5o4)n([C@@H]4CC[C@H](F)C4)c3c2c1` (relative stereo) [Example 65, 2-(1,3-benzoxazol-2-ylmethyl)-1-[cis-3-fluorocyclopentyl]-1H-imidazo[4,5-c]quinoline-8-carbonitrile]: the figures for the IC50 (at mutant G2019S LRRK2 (setting [2]); in assay [1] (setting [3])) were 6.33 nM and 8.56 nM, respectively.

In the case of `Cc1cnc(Cc2nc3cnc4ccc(Cl)cc4c3n2[C@@H]2CC[C@H](F)C2)cn1` (relative stereo) [Example 77, 8-chloro-1-[cis-3-fluorocyclopentyl]-2-[(5-methylpyrazin-2-yl)methyl]-1H-imidazo[4,5-c]quinoline], the IC50 on mutant G2019S LRRK2 (setting [2]) came to 11.8 nM; in assay [1] (setting [3]) it was 13 nM.

The compound `Cc1nc2cnc3ccc(Cl)cc3c2n1[C@H]1CCO[C@@H](CC#N)C1` (relative stereo) [enantiomer of Example 31, [cis-4-(8-chloro-2-methyl-1H-imidazo[4,5-c]quinolin-1-yl)tetrahydro-2H-pyran-2-yl]acetonitrile] came in with an IC50 in assay [1] (setting [4]) of 1660 nM.

The compound `Cc1cc(Cc2nc3cnc4ccc(Cl)cc4c3n2[C@H]2CCO[C@@H](C(F)F)C2)no1` (relative stereo) [enantiomer of Example 59, 8-chloro-1-[cis-2-(difluoromethyl)tetrahydro-2H-pyran-4-yl]-2-[(5-methyl-1,2-oxazol-3-yl)methyl]-1H-imidazo[4,5-c]quinoline] came in with an IC50 in assay [1] (setting [4]) of 631 nM.

Take `Fc1ccc2ncc3nc(Cc4csnn4)n([C@H]4CC[C@@H](F)C4)c3c2c1` (relative stereo) [enantiomer of Example 79, 8-fluoro-1-[cis-3-fluorocyclopentyl]-2-(1,2,3-thiadiazol-4-ylmethyl)-1H-imidazo[4,5-c]quinoline]: in assay [1] (setting [4]), the IC50 came to 7.54 nM.

`Cc1cnn(Cc2nc3cnc4ccc(C#N)cc4c3n2C2CN(C)CC2(F)F)n1` (single isomer, unassigned) [Example 3, 1-(4,4-Difluoro-1-methylpyrrolidin-3-yl)-2-[(4-methyl-2H-1,2,3-triazol-2-yl)methyl]-1H-imidazo[4,5-c]quinoline-8-carbonitrile] had an IC50 in assay [1] (setting [3]) of 31.8 nM.

Consider `Cc1cnn(Cc2nc3cnc4ccc(C#N)cc4c3n2C2CN(C)CC2(F)F)n1` (single isomer, unassigned) [Example 4, 1-(4,4-Difluoro-1-methylpyrrolidin-3-yl)-2-[(4-methyl-2H-1,2,3-triazol-2-yl)methyl]-1H-imidazo[4,5-c]quinoline-8-carbonitrile], for which the IC50 turned out to be 3.31 nM on mutant G2019S LRRK2 (setting [2]) and 17.6 nM in assay [1] (setting [3]).

`CCc1nc2cnc3ccc(Cl)cc3c2n1[C@H]1CCO[C@@H](CC#N)C1` [Example 2, [(2R,4S)-4-(8-Chloro-2-ethyl-1H-imidazo[4,5-c]quinolin-1-yl)tetrahydro-2H-pyran-2-yl]acetonitrile] had an IC50 in assay [1] (setting [3]) of 1530 nM.

Regarding `N#CCC1CC(n2c(C3CCC3)nc3cnc4ccc(Cl)cc4c32)CCO1` (stereo not drawn) [Example 10, [cis-4-(8-Chloro-2-cyclobutyl-1H-imidazo[4,5-c]quinolin-1-yl)tetrahydro-2H-pyran-2-yl]acetonitrile], the IC50 in assay [1] (setting [3]) is 1790 nM.

As for `FC1(F)COCCC1n1c(Cn2cncn2)nc2cnc3ccc(Cl)cc3c21` (stereo not shown) [Example 54, 8-chloro-1-(3,3-difluorotetrahydro-2H-pyran-4-yl)-2-(1H-1,2,4-triazol-1-ylmethyl)-1H-imidazo[4,5-c]quinoline], the IC50 in assay [1] (setting [4]) and in assay [1] (setting [3]) was 10.3 nM throughout.

`Cc1nn2cc(Cc3nc4cnc5ccc(F)cc5c4n3C3CN(C)CC3(F)F)nc2s1` (stereo not shown) [Example 85, 1-(4,4-difluoro-1-methylpyrrolidin-3-yl)-8-fluoro-2-[(2-methylimidazo[2,1-b][1,3,4]thiadiazol-6-yl)methyl]-1H-imidazo[4,5-c]quinoline] had an IC50 in assay [1] (setting [3]) of 2.62 nM.

In assay [1] (setting [4]), `CC(C#N)Cc1nc2cnc3ccc(Cl)cc3c2n1[C@@H]1CCO[C@H](C)C1` (stereo partly drawn) [diastereomer of Example 78, 3-{8-chloro-1-[(2R,4R)-2-methyltetrahydro-2H-pyran-4-yl]-1H-imidazo[4,5-c]quinolin-2-yl}-2-methylpropanenitrile] yielded a concentration for half-maximal inhibition (IC50) of 37.2 nM.

On to `Cc1nc(Cc2nc3cnc4ccc(C#N)cc4c3n2C2CN(C)CC2(F)F)no1` (stereo not drawn) [enantiomer of Example 32, 1-(4,4-difluoro-1-methylpyrrolidin-3-yl)-2-[(5-methyl-1,2,4-oxadiazol-3-yl)methyl]-1H-imidazo[4,5-c]quinoline-8-carbonitrile], for which the IC50 in assay [1] (setting [4]) is 473 nM.

For `CN1CC(n2c(Cn3cc(C4CC4)nn3)nc3cnc4ccc(Cl)cc4c32)C(F)(F)C1` (stereo not drawn) [enantiomer of Example 47, 8-chloro-2-[(4-cyclopropyl-1H-1,2,3-triazol-1-yl)methyl]-1-(4,4-difluoro-1-methylpyrrolidin-3-yl)-1H-imidazo[4,5-c]quinoline], the IC50 in assay [1] (setting [4]) turned out to be 97.3 nM.

As for `Cc1cn(Cc2nc3cnc4ccc(Cl)cc4c3n2C2CN(C)CC2(F)F)nn1` (stereo not drawn) [enantiomer of Example 48, 8-chloro-1-(4,4-difluoro-1-methylpyrrolidin-3-yl)-2-[(4-methyl-1H-1,2,3-triazol-1-yl)methyl]-1H-imidazo[4,5-c]quinoline], in assay [1] (setting [4]), the IC50 stood at 145 nM.

On to `Cc1nnn(Cc2nc3cnc4ccc(Cl)cc4c3n2C2CN(C)CC2(F)F)n1` (stereo not drawn) [enantiomer of Example 49, 8-chloro-1-(4,4-difluoro-1-methylpyrrolidin-3-yl)-2-[(5-methyl-2H-tetrazol-2-yl)methyl]-1H-imidazo[4,5-c]quinoline], for which the IC50 in assay [1] (setting [4]) stood at 46.2 nM.

Take `Cc1cnc(Cc2nc3cnc4ccc(Cl)cc4c3n2C2CN(C)CC2(F)F)cn1` (stereo not drawn) [enantiomer of Example 50, 8-chloro-1-(4,4-difluoro-1-methylpyrrolidin-3-yl)-2-[(5-methylpyrazin-2-yl)methyl]-1H-imidazo[4,5-c]quinoline]: in assay [1] (setting [4]), half-maximal inhibition (IC50) was put at 181 nM.

On to `COCc1cn(Cc2nc3cnc4ccc(F)cc4c3n2C2CN(C)CC2(F)F)nn1` (stereo not drawn) [enantiomer of Example 53, 1-(4,4-difluoro-1-methylpyrrolidin-3-yl)-8-fluoro-2-{[4-(methoxymethyl)-1H-1,2,3-triazol-1-yl]methyl}-1H-imidazo[4,5-c]quinoline], for which the IC50 in assay [1] (setting [4]) turned out to be 229 nM.

`COCc1cn(Cc2nc3cnc4ccc(Cl)cc4c3n2C2CCOCC2(F)F)nn1` (stereo not drawn) [enantiomer of Example 55, 8-chloro-1-(3,3-difluorotetrahydro-2H-pyran-4-yl)-2-{[4-(methoxymethyl)-1H-1,2,3-triazol-1-yl]methyl}-1H-imidazo[4,5-c]quinoline] had an IC50 in assay [1] (setting [4]) of 15.3 nM.

In assay [1] (setting [4]), `Cc1nn2cc(Cc3nc4cnc5ccc(F)cc5c4n3C3CN(C)CC3(F)F)nc2s1` (stereo not drawn) [enantiomer of Example 85, 1-(4,4-difluoro-1-methylpyrrolidin-3-yl)-8-fluoro-2-[(2-methylimidazo[2,1-b][1,3,4]thiadiazol-6-yl)methyl]-1H-imidazo[4,5-c]quinoline] gave an IC50 of 55.9 nM.

`CN1CC(n2c(Cn3cnnn3)nc3cnc4ccc(Cl)cc4c32)C(F)(F)C1` (stereo not drawn) [enantiomer of Example 86, 8-chloro-1-(4,4-difluoro-1-methylpyrrolidin-3-yl)-2-(1H-tetrazol-1-ylmethyl)-1H-imidazo[4,5-c]quinoline] yielded an IC50 in assay [1] (setting [4]) of 271 nM.

With `Cc1cnn(Cc2nc3cnc4ccc(Cl)cc4c3n2C2CN(C)CC2(F)F)n1` (stereo not drawn) [enantiomer of Example 87, 8-chloro-1-(4,4-difluoro-1-methylpyrrolidin-3-yl)-2-[(4-methyl-2H-1,2,3-triazol-2-yl)methyl]-1H-imidazo[4,5-c]quinoline], 37.8 nM corresponded to half-maximal inhibition in assay [1] (setting [4]) (IC50).

As for `Cc1nc(Cc2nc3cnc4ccc(Cl)cc4c3n2C2CN(C)CC2(F)F)no1` (stereo not drawn) [enantiomer of Example 88, 8-chloro-1-(4,4-difluoro-1-methylpyrrolidin-3-yl)-2-[(5-methyl-1,2,4-oxadiazol-3-yl)methyl]-1H-imidazo[4,5-c]quinoline], the IC50 in assay [1] (setting [4]) was 261 nM.

`Cc1nnc(Cc2nc3cnc4ccc(Cl)cc4c3n2C2CCOCC2(F)F)s1` (stereo not drawn) [enantiomer of Example 92, 8-chloro-1-(3,3-difluorotetrahydro-2H-pyran-4-yl)-2-[(5-methyl-1,3,4-thiadiazol-2-yl)methyl]-1H-imidazo[4,5-c]quinoline]: inhibition in assay [1] (setting [4]) was half-maximal at 33.7 nM (IC50).

In assay [1] (setting [4]), `FC1(F)COCCC1n1c(Cn2cc(C3CC3)nn2)nc2cnc3ccc(Cl)cc3c21` (stereo not drawn) [enantiomer of Example 94, 8-chloro-2-[(4-cyclopropyl-1H-1,2,3-triazol-1-yl)methyl]-1-(3,3-difluorotetrahydro-2H-pyran-4-yl)-1H-imidazo[4,5-c]quinoline] returned a half-inhibitory concentration (IC50) of 9.35 nM.

(Values after patent US11312713B2, “Imidazo[4,5-C]quinoline derivatives as LRRK2 inhibitors” (Pfizer Inc., priority 2017, dated 2022).)
